Here are results for six molecules from article PMC5708362, “A systematic analysis of atomic protein–ligand interactions in the PDB” (MedChemComm, 2017).

The subject of assay [1] is human sEH. Also noted: method as in PMID 19746975. The settings on record: human sEH inhibitors; cited from earlier work.
The test system of assay [2] is human factor Xa. The assay can be described thus: factor Xa inhibition, ammonium methylation series (cation–π). It is filed as biochemical. As to conditions: trimethylated ammonium 17 vs tert-butyl analog 15.
Assay [3] deals with thrombin. Also noted: method as in PMID 20148533. The settings on record: thrombin inhibitors; cited from earlier work.
Assay [4] deals with human EGFR. Also noted: method as in PMID 23611691. As to conditions: human EGFR inhibitors; cited from earlier work.
Assay [5] concerns human EGFR. Briefly: EGFR inhibition (salt bridge pair). It is filed as biochemical. As to conditions: 9 (carbon in place of terminal N,N-dimethylamino nitrogen) vs 10.

Each structure is given as a SMILES string.

As a reminder, the IC50 is the concentration at which inhibition is half-maximal.

With `O=C(NCCC(c1ccccc1)c1ccccc1)c1cccnc1` [compound 6], the half-maximal inhibitory concentration (IC50) in assay [1] was […].

Regarding `C[N+](C)(C)CCCN1C(=O)[C@@H]2[C@H](C1=O)[C@H](c1cc(-c3ccc(Cl)s3)on1)N1CCC[C@@H]21` (racemic) [(±)-17], the “fold increase in potency” value in assay [2] was 60 fold.

Turning to `O=C(NCCCc1ccccc1)c1cccnc1` [compound 5], the IC50 in assay [1] was 700 nM.

`O=C(NCc1cccc(Cl)c1)[C@@H]1CCCN1C(=O)CCc1ccccc1` [compound 3]: in assay [3], the IC50 was 94300 nM.

For `CN(C)CCCC(=O)Nc1cccc(-c2c(-c3ccccc3)oc3ncnc(N[C@H](CO)c4ccccc4)c23)c1` [compound 10], in assay [4], the IC50 was 29 nM.

Regarding `CC(C)CCCC(=O)Nc1cccc(-c2c(-c3ccccc3)oc3ncnc(N[C@H](CO)c4ccccc4)c23)c1` [compound 9], in assay [5], the “potency reduced by fold” value is “more than 800 fold”. For the same molecule, the IC50 in assay [4] was over 25000 nM.
